Results on one molecule are retold here after patent US10222368B2 (priority 2012, dated 2019).

SMILES strings stand for the structures.

One experiment deals with α7nAChR-Aβ42 complex. Description: 96-well FITC-solid phase method in lymphocytes. Particulars: 1 nM C0105, 30 min; AD lymphocytes or Aβ42-treated control lymphocytes. Format: cell-based, human. An excerpt: FIG. 2 illustrates the utility of a 96-well FITC-solid phase assay method to assess, in lymphocytes from AD patients and control subjects, levels of 1) the FLNA-α7nAChR association 2) the FLNA-TLR4 association and 3) α7nAChR-Aβ42 complexes. The top two panels show α7nAChR and TLR4 levels detected using respective FITC-anti-α7nAChR or FITC-anti-TLR4 antibodies after capturing FLNA coupled to α7nAChR and TLR4, respectively, with an anti-FLNA antibody coated on the microtiter solid phase plate.
To prepare lymphocytes, 7 ml of venous blood was collected into an EDTA-containing collecting tube or S-monovette (Sarstedt). Collected blood (6 ml) was layered onto 6 ml of Histopaque®-1077 (Sigma) at 25° C., and the anticoagulated blood was centrifuged at 400×g for 30 minutes (25° C.) to yield plasma (top layer) and lymphocytes (opaque interface). The lymphocytes were washed twice by mixing with 6 ml of oxygenated K-R followed by centrifugation at 250×g for 10 minutes and resuspension. […]
After two 1-minute washes with 50 mM Tris HCl (pH 7.4), each well was incubated in 0.5 μg/well FITC-conjugated anti-mouse IgG (human and mouse absorbed) for 1 hour at 25° C. Plates were washed twice with 200 μl ice-cold Tris HCl, pH 7.4 and the residual FITC-Aβ42 signals were determined by multimode plate reader, DTX880 (Beckman). […]

The test system of the next experiment is α7nAChR/Aβ42 complexes. Description: Protein A and Protein G capture plate assay in lymphocytes. Particulars: 1 nM. Format: cell-based, human. The procedure: Each sample was assessed in duplicate.
Experiment [1] concerns the target FLNA association with α7nAChR (Mus musculus, UniProt Q8BTM8). Description: ICV Aβ42 infusion mouse model, synaptosome co-immunoprecipitation. Conditions: 10 mg/kg C0105 i.p. twice daily, 2 weeks; prefrontal cortex and hippocampus.
The next experiment has as its target T1, TLR4-FLNA complex (Homo sapiens, UniProt P21333).
T1 construct: To determine the levels of FLNA-α7nAChR, FLNA-TLR4 and α7nAChR-Aβ42 complexes in the lymphocytes; endogenous in cells; host or cells: lymphocytes from venous blood of AD patients and control subjects (ex vivo)
Description: Lymphocyte co-immunoprecipitation / Western blot. Format: cell-based. The procedure:
To prepare lymphocytes, 7 ml of venous blood was collected into an EDTA-containing collecting tube or S-monovette (Sarstedt, Newton, N.C.). Collected blood (6 ml) was layered onto 6 ml HISTOPAQUE-1077 (Sigma, St Louis, Mo.) at 25° C. and the entire anti-coagulated blood was centrifuged at 400×g for 30 minutes (25° C.) to yield plasma (top layer) and lymphocytes (opaque interface). The lymphocytes were washed twice by mixing with 6 ml oxygenated Kreb's-Ringer followed by centrifugation at 250×g for 10 minutes and re-suspension. The final pellet was resuspended in 250 μl oxygenated Kreb's-Ringer prior to protein content determination by the Bradford method and assessment of the levels of FLNA-α7nAChR, FLNA-TLR4 and α7nAChR-Aβ42 complexes. To store lymphocytes, the lymphocyte pellet was resuspended in 250 μl ice-cold oxygenated Kreb's-Ringer containing 10% glycerol, and stored at −20° C. for 1 hour before storage at −80° C.
To determine the levels of FLNA-α7nAChR, FLNA-TLR4 and α7nAChR-Aβ42 complexes in the lymphocytes, lymphocytes (50 μg) from control subjects were incubated for 30 minutes at 37° C. in 0.25 ml Kreb's-Ringer without or with 100 nM Aβ 42, and lymphocytes (50 μg) from AD subjects were incubated for 30 minutes at 37° C. in 0.25 ml Kreb's-Ringer. Lymphocytes from control and AD subjects were also simultaneously incubated with or without Compound C0105 (1 nM). […] In the case that frozen lymphocyte samples were used, a lymphocyte suspension was gradually thawed by storing at −20° C. for 1 hour after removal from −80° C. and then at thawed at 4° C.
The incubation was terminated by adding 1 ml ice-cold Ca^2+-free Kreb's-Ringer containing 0.5 mM EGTA/0.1 mM EDTA, protease and phosphatase inhibitors followed by centrifugation. The resultant lymphocyte pellet was homogenized in 0.25 ml ice-cold immunoprecipitation buffer. […]
The results are shown in FIG. 1A and quantified in FIG. 1C. […]
In general terms: Immunoblotting shows a protein as a band on a membrane.

T1 sequence (P21333 2-2647 limits assumed, one chain of several): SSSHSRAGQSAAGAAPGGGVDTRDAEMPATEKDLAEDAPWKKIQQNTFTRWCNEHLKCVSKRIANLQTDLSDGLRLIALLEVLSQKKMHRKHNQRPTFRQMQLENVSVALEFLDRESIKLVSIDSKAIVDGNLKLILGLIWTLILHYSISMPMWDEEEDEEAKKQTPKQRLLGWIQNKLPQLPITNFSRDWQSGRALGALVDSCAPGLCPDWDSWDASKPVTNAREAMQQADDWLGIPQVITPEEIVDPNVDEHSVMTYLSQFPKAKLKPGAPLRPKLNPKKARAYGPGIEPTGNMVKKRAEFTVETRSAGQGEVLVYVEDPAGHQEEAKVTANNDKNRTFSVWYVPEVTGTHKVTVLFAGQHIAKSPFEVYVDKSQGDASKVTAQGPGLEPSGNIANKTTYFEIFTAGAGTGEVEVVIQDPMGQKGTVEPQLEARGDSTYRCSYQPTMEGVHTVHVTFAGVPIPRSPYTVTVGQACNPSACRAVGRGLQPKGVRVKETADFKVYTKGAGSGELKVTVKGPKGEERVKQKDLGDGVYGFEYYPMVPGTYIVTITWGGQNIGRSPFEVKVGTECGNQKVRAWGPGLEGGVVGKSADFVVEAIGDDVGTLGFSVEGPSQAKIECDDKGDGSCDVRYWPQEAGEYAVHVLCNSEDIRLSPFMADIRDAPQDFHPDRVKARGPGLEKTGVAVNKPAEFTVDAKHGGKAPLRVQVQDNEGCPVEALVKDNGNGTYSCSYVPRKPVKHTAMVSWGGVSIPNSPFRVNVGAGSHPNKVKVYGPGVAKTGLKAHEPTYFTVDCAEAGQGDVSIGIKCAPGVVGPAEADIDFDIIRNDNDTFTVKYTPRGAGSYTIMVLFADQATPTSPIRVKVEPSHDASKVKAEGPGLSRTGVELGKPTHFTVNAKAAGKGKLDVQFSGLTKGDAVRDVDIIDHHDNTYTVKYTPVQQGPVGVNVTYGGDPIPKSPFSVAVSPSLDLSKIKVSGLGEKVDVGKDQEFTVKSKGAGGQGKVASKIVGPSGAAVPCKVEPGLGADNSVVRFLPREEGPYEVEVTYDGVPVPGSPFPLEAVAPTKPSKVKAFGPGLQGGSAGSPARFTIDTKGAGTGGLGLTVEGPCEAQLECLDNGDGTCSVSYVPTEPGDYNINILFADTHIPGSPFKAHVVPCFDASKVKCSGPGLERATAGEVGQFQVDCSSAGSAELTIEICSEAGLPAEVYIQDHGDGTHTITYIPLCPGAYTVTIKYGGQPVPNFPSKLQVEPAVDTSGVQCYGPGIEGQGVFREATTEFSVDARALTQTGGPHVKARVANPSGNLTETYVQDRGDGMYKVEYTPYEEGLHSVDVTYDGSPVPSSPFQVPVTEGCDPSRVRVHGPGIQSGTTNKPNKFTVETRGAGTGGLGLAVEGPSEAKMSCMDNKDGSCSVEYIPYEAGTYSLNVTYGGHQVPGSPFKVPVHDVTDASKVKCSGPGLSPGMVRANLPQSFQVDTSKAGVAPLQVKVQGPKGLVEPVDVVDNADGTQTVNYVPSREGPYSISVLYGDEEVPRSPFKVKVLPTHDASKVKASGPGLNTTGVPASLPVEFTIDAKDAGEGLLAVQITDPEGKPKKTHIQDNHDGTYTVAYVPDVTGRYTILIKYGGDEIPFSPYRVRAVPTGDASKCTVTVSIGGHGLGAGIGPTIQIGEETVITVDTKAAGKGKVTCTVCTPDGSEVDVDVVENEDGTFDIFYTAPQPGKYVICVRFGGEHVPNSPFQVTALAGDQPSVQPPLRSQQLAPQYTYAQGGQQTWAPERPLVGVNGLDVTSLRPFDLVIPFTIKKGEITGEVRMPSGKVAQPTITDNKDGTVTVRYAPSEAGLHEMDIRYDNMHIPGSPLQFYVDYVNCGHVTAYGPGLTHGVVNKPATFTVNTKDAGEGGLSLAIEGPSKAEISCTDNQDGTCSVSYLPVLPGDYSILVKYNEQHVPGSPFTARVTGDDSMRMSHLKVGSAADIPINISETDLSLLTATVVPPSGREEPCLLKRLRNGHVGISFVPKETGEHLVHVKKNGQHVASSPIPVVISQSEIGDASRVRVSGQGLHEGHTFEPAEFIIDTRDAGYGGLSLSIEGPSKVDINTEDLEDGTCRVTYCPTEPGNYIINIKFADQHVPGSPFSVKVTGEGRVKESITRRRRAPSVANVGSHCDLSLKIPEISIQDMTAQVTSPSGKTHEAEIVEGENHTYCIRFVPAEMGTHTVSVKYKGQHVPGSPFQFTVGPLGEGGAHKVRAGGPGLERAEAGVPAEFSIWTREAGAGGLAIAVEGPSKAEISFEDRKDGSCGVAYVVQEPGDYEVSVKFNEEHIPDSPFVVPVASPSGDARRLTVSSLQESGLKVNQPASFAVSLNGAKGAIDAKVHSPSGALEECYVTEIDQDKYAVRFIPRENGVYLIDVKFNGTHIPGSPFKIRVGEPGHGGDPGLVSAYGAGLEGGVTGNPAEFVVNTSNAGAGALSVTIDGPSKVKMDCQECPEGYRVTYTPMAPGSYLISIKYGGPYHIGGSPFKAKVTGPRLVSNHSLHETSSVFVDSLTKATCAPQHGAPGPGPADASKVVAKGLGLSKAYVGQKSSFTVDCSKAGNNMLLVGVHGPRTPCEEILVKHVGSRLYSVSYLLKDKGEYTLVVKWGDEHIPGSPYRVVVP

Regarding `CN1CCC2(CC1)NCC(=O)N2Cc1ccccc1` [Compound C0105], the “Effect on α7nAChR-Aβ42 complexes (in words)” value with α7nAChR-Aβ42 complex is listed as “reduce all three associations”. Further, in the experiment on α7nAChR/Aβ42 complexes (AD lymphocytes), the “Decrease in amount of α7nAChR/Aβ42 complexes” value is “approximately 50%”. In addition, the “Response of α7nAChR/Aβ42 complexes (in words)” value in the experiment with α7nAChR/Aβ42 complexes (YCI lymphocytes) is given as “essentially non-responsive”. In addition, the “Effect on Aβ42-induced FLNA association with α7nAChR (in words)” value in experiment [1] is recorded as “reduced Aβ42-induced increases in FLNA associations”. For the same molecule, the inhibition at 0.001 µM at TLR4-FLNA complex (1 nM C0105, 30 min, lymphocytes of 20 AD subjects, read-out: Reduction of TLR4/FLNA complex level (% inhibition)) was ~50%. The “Effect on amount of TLR4-FLNA complexes (in words), pilot study” value on TLR4-FLNA complex (1 nM C0105, Aβ42-treated control and untreated AD lymphocytes) was “decreases the amount of TLR4-FLNA complexes”. Moreover, the “Effect on TLR4/FLNA complex level (in words)” value on TLR4-FLNA complex (1 nM C0105, lymphocytes of 10 YCI controls) is reported as “no discernible effect”.
